≈ marks a conversion by molar mass, not a printed value.
Tested on: Candida glabrata clinical isolates
Test: Microbroth dilution assay (CLSI M27-A2) of azole susceptibility of clinical isolates;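 note: growth of C. glabrata cervicovaginal isolates in 96-well plates, absorbance at 620 nm minus medium background, 35 °C for 24 and 48 h, DMSO ≦0.5%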
Conditions: for % of isolates S (susceptible) / No. of isolates S (susceptible): 175 C. glabrata cervicovaginal clinical isolates, S = MIC ≦8 μg/ml fluconazole, ≦1 μg/ml voriconazole, proposed breakpoints for voriconazole and miconazole; for MIC: Nakaseomyces glabratus
Source text: One hundred seventy-five (175) Candida glabrata clinical isolates were retrieved from cervicovaginal swabs. Clinical isolates were obtained from cervicovaginal swabs of female patients suspected of having vulvovaginal candidiasis (WC) from across the United States. Candida glabrata PCR positive swabs were struck out on Candida CHROMagar, and individual Candida glabrata colonies were isolated for susceptibility testing using the microbroth dilution assay according to the Clinical and Laboratory Standards Institute protocol. Susceptibilities of these isolates to triazole anti-fungal drugs (e.g., fluconazole, voriconazole, and miconazole) were determined.
The microbroth dilution assays were performed using RPMI 1640 (minus glutamine, and 0.165 M MOPS to pH 7.0) (Sigma, St. Louis, Mo.). […] Drugs were obtained from the following sources: fluconazole (LKT Laboratories, St. Paul, Minn.), miconazole (MP Biomedicals, Inc., Solon, Ohio) and voriconazole (Pfizer, New York, N.Y.). All drugs were dissolved in dimethyl sulfoxide (DMSO) to a final concentration of ≦0.5% in all experiments at which C. glabrata growth was not affected.
Protocols for microbroth dilution assays (i.e., susceptibility testing) was performed by MBD according to the Clincial and Laboratory Standards Institute (CLSI) guidelines outlined in M27-A2. Azole antifungals and concentrations tested were fluconazole (2 to 128 μg/ml), voriconazole (8 to 0.125 μg/ml), and miconazole (8 to 0.125 μg/ml). Candida glabrata isolates were growth in RPMI 1640 media (minus glutamine, plus 2% glucose, and 0.165M MOPS to pH 7.0) to mid-log phase and cultures were diluted to 5×10^3 cells/ml in RPMI 1640 medium. Aliquots of 100 μl were distributed to wells of a 96-well flat-bottom plate, except for row A which received 200 μl. Drug was added to row A at the desired concentration (fluconazole, 128 μg/ml, voriconazole 8 μg/ml, and miconazole 8 μg/ml) and then serially two-fold diluted to rows B through G; row H served as a drug-free control. Plates were incubated at 35° C. for 24 and 48 hours. Absorbance at 620 nm was read with a microplate reader (Beckman Coulter, Inc., Fullerton, Calif.); background due to medium was subtracted from all readings.
The MIC was defined as the lowest concentration inhibiting growth at least 80% relative to the drug-free control.

SMILES: C[C@@H](c1ncncc1F)[C@](O)(Cn1cncn1)c1ccc(F)cc1F [Voriconazole, voriconazole]
- % of isolates S (susceptible): 62.3%
- No. of isolates S (susceptible): 109

SMILES: OC(Cn1cncn1)(Cn1cncn1)c1ccc(F)cc1F [Fluconazole, fluconazole]
- % of isolates S (susceptible): 30.9%
- No. of isolates S (susceptible): 54
- MIC (isolates of swab S1 (susceptible group)): 8 mg/L (≈ 26.1 µM)
- MIC (isolates of swab S2 (susceptible group)): 4 mg/L (≈ 13.1 µM)
- MIC (isolates of swab S3 (susceptible group)): 4 mg/L (≈ 13.1 µM)
- MIC (isolates of swab S4 (susceptible group)): 2 mg/L (≈ 6.53 µM)
- MIC (isolates of swab S5 (susceptible group)): 4 mg/L (≈ 13.1 µM)
- MIC (isolates of swab S6 (susceptible group)): 4 mg/L (≈ 13.1 µM)
- MIC (isolates of swab S7 (susceptible group)): 4 mg/L (≈ 13.1 µM)
- MIC (isolates of swab S8 (susceptible group)): 4 mg/L (≈ 13.1 µM)
- MIC (isolates of swab S9 (susceptible group)): 2 mg/L (≈ 6.53 µM)
- MIC (isolates of swab S11 (S-DD group)): 16 mg/L (≈ 52.2 µM)
- MIC (isolates of swab S12 (S-DD group)): 16 mg/L (≈ 52.2 µM)
- MIC (isolates of swab S13 (S-DD group)): 16 mg/L (≈ 52.2 µM)
- MIC (isolates of swab S14 (S-DD group)): 16 mg/L (≈ 52.2 µM)
- MIC (isolates of swab S15 (S-DD group)): 32 mg/L (≈ 104 µM)
- MIC (isolates of swab S16 (S-DD group)): 16 mg/L (≈ 52.2 µM)
- MIC (isolates of swab S17 (S-DD group)): 16 mg/L (≈ 52.2 µM)
- MIC (isolates of swab S18 (S-DD group)): 16 mg/L (≈ 52.2 µM)
- MIC (isolates of swab S19 (S-DD group)): 32 mg/L (≈ 104 µM)
- MIC (isolates of swab S20 (S-DD group)): 32 mg/L (≈ 104 µM)
- MIC (isolates of swab S21 (resistant group)): 128 mg/L (≈ 418 µM)
- MIC (isolates of swab S22 (resistant group)): 128 mg/L (≈ 418 µM)
- MIC (isolates of swab S23 (resistant group)): 128 mg/L (≈ 418 µM)
- MIC (isolates of swab S24 (resistant group)): 128 mg/L (≈ 418 µM)
- MIC (isolates of swab S25 (resistant group)): 64 mg/L (≈ 209 µM)
- MIC (isolates of swab S26 (resistant group)): 128 mg/L (≈ 418 µM)
- MIC (isolates of swab S27 (resistant group)): 64 mg/L (≈ 209 µM)
- MIC (isolates of swab S28 (resistant group)): 128 mg/L (≈ 418 µM)
- MIC (isolates of swab S29 (resistant group)): 64 mg/L (≈ 209 µM)
- MIC (swab S10, the single resistant isolate): 128 mg/L (≈ 418 µM)
- MIC (swab S10, the two susceptible isolates): 8 mg/L (≈ 26.1 µM)

SMILES: Clc1ccc(COC(Cn2ccnc2)c2ccc(Cl)cc2Cl)c(Cl)c1 (stereo not shown) [Miconazole, miconazole]
- % of isolates S (susceptible): 100.0%
- No. of isolates S (susceptible): 175
- Susceptibility of the clinical isolates (in words) (175 C. glabrata clinical isolates): All of the clinical isolates were susceptible

From patent US8021846B2, “Method for determining azole resistance in Candida glabrata” (Medical Diagnostic Laboratories, LLC, priority 2008, dated 2011)
